Experimental data published in the supplement of paper PMC11208160.

assay: recombinant UMI read abundance after kanamycin selection (control-corrected) (log10(CPM+1)); higher = more efficient recombination; extreme values may be limits of the assay; sequences stand for … in AGTGCAGAGAAAATCGGCCAGTTTTCTCTGCCTGCAGTCCGCATGCCGTGGGACCCCTTGGGTTCTAACCTGTTGCCTAGATTTATGCAGCGGACTGCCTTTCTCCCAAAGTGATAAACCGG…AGGTTGGTTTCACT; site = the 11-nt donor
Procedure, shortened: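 In a pooled Escherichia coli screen for the IS621 bridge recombinase, donor and donor-binding-loop pairs were each placed with a 12-nt UMI on a plasmid bearing a promoterless kanamycin gene. This library was co-electroporated with a target plasmid encoding a fixed target and T7-inducible recombinase, and cells were plated either on IPTG (0.07 mM) plus kanamycin or without selection, in two replicates each. Recombinant UMIs were PCR-amplified across the donor–target junction and sequenced, and counts were converted to CPM, averaged over replicates, scaled by control-derived factors and reported as log10(CPM+1).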
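Further: IS621 bridge recombinase in Escherichia coli cells against a fixed T5 target plasmid.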

Sequence	recombinant UMI read abundance (log10)
GACGAACCATGGACCGGTTTTCCCGGTAATCCGTATTTGGT (site GACGAACCTAC)	0
GACGAACCATGGACCGGTTTTCCCGGTAATCCGTATTTGGT (site GACTAACCTAC)	0.0149
GACGCAACATGGACCGGTTTTCCCGGTAATCCGTATTTGTA (site GACGCAACTTA)	1.34
GACGCCGCATGGACCGGTTTTCCCGGTAATCCGTATTTGGC (site GACGCCGCTGC)	2.91
GACGTCTCATGGACCGGTTTTCCCGGTAATCCGTATTTGGA (site GACGTCTCTTC)	1.94
GACTATACATGGACCGGTTTTCCCGGTAATCCGTATTTGGG (site GACTATACTCC)	0.588
GACTCGACATGGACCGGTTTTCCCGGTAATCCGTATTTGCA (site GACTCGACTTG)	1.84
GACTCTGCATGGACCGGTTTTCCCGGTAATCCGTATTTGCT (site GACTCTGCTAG)	1.3
GACTGACCATGGACCGGTTTTCCCGGTAATCCGTATTTGGC (site GACTGACCTGC)	0
GACTGAGCATGGACCGGTTTTCCCGGTAATCCGTATTTGTC (site GACTGAGCTGA)	2.29
GACTGCACATGGACCGGTTTTCCCGGTAATCCGTATTTGGT (site GACTGCACTAC)	0.857
GACTTAGCATGGACCGGTTTTCCCGGTAATCCGTATTTGGT (site GACTTAGCTAC)	0.191
GAGAAACCATGGACCGGTTTTCCCGGTAATCCGTATTTGGT (site GAAAAACCTAC)	0
GAGAAACCATGGACCGGTTTTCCCGGTAATCCGTATTTGGT (site GACAAACCTAC)	0
GAGAAACCATGGACCGGTTTTCCCGGTAATCCGTATTTGGT (site GAGAAACCTAC)	0
GAGAAACCATGGACCGGTTTTCCCGGTAATCCGTATTTGGT (site GATAAACCTAC)	0
GAGAACCCATGGACCGGTTTTCCCGGTAATCCGTATTTGTC (site GAGAACCCTGA)	0
GAGAAGCCATGGACCGGTTTTCCCGGTAATCCGTATTTGAC (site GAGAAGCCTGT)	0
GAGACAACATGGACCGGTTTTCCCGGTAATCCGTATTTGAA (site GAGACAACTTT)	0.852
GAGACGACATGGACCGGTTTTCCCGGTAATCCGTATTTGGG (site GAGACGACTCC)	0.501
GAGACGACATGGACCGGTTTTCCCGGTAATCCGTATTTGTC (site GAGACGACTGA)	1.94
GAGACTACATGGACCGGTTTTCCCGGTAATCCGTATTTGAA (site GAGACTACTTT)	0.551
GAGATAACATGGACCGGTTTTCCCGGTAATCCGTATTTGCG (site GAGATAACTCG)	1.56

Sequence	recombinant UMI read abundance (log10)
GAGATCACATGGACCGGTTTTCCCGGTAATCCGTATTTGGT (site GAGATCACTAC)	1.37
GAGATGACATGGACCGGTTTTCCCGGTAATCCGTATTTGCA (site GAGATGACTTG)	2.52
GAGCAATCATGGACCGGTTTTCCCGGTAATCCGTATTTGTT (site GAGCAATCTAA)	2.77
GAGCATGCATGGACCGGTTTTCCCGGTAATCCGTATTTGGT (site GAGCATGCTAC)	1.5
GAGCATGCATGGACCGGTTTTCCCGGTAATCCGTATTTGGT (site GCGCATGCTAC)	0.474
GAGCATGCATGGACCGGTTTTCCCGGTAATCCGTATTTGGT (site GGGCATGCTAC)	0.422
GAGCATGCATGGACCGGTTTTCCCGGTAATCCGTATTTGGT (site GTGCATGCTAC)	0.162
GAGCCGGCATGGACCGGTTTTCCCGGTAATCCGTATTTGGT (site GAGCCGGCTAC)	0.57
GAGCCTGCATGGACCGGTTTTCCCGGTAATCCGTATTTGGT (site GAGCCTGCTAC)	0.482
GAGCGTTCATGGACCGGTTTTCCCGGTAATCCGTATTTGCG (site GAGCGTTCTCG)	1.82
GAGCTAACATGGACCGGTTTTCCCGGTAATCCGTATTTGAT (site GAGCTAACTAT)	2.46
GAGCTAACATGGACCGGTTTTCCCGGTAATCCGTATTTGAT (site GAGCTCACTAT)	0.0205
GAGCTAACATGGACCGGTTTTCCCGGTAATCCGTATTTGAT (site GAGCTGACTAT)	0.034
GAGCTAACATGGACCGGTTTTCCCGGTAATCCGTATTTGAT (site GAGCTTACTAT)	0.00927
GAGCTCACATGGACCGGTTTTCCCGGTAATCCGTATTTGCT (site GAGCTCACTAA)	1.28
GAGCTCACATGGACCGGTTTTCCCGGTAATCCGTATTTGCT (site GAGCTCACTAC)	0.00315
GAGCTCACATGGACCGGTTTTCCCGGTAATCCGTATTTGCT (site GAGCTCACTAG)	2.24
GAGCTCACATGGACCGGTTTTCCCGGTAATCCGTATTTGCT (site GAGCTCACTAT)	1.14
GAGCTGACATGGACCGGTTTTCCCGGTAATCCGTATTTGAT (site GAGCTAACTAT)	2.08
GAGCTGACATGGACCGGTTTTCCCGGTAATCCGTATTTGAT (site GAGCTCACTAT)	0.0113
GAGCTGACATGGACCGGTTTTCCCGGTAATCCGTATTTGAT (site GAGCTGACTAT)	2.09
GAGCTGACATGGACCGGTTTTCCCGGTAATCCGTATTTGAT (site GAGCTTACTAT)	0.154
GAGCTGCCATGGACCGGTTTTCCCGGTAATCCGTATTTGCG (site GAGCTGCCTCG)	0.232

Sequence	recombinant UMI read abundance (log10)
GAGGAACCATGGACCGGTTTTCCCGGTAATCCGTATTTGTT (site GAGGAACCTAA)	0
GAGGATTCATGGACCGGTTTTCCCGGTAATCCGTATTTGTT (site GAAGATTCTAA)	1.46
GAGGATTCATGGACCGGTTTTCCCGGTAATCCGTATTTGTT (site GACGATTCTAA)	0.365
GAGGATTCATGGACCGGTTTTCCCGGTAATCCGTATTTGTT (site GAGGATTCTAA)	2.83
GAGGATTCATGGACCGGTTTTCCCGGTAATCCGTATTTGTT (site GATGATTCTAA)	0.0156
GAGGGGCCATGGACCGGTTTTCCCGGTAATCCGTATTTGGC (site GAGGGGCCTGC)	0
GAGTACCCATGGACCGGTTTTCCCGGTAATCCGTATTTGTT (site GAGTACCCTAA)	0.0215
GAGTGCGCATGGACCGGTTTTCCCGGTAATCCGTATTTGTC (site GAGTGCGCTGA)	2.71
GAGTGGCCATGGACCGGTTTTCCCGGTAATCCGTATTTGCA (site GAATGGCCTTG)	0
GAGTGGCCATGGACCGGTTTTCCCGGTAATCCGTATTTGCA (site GACTGGCCTTG)	0
GAGTGGCCATGGACCGGTTTTCCCGGTAATCCGTATTTGCA (site GAGTGGCCTTG)	0
GAGTGGCCATGGACCGGTTTTCCCGGTAATCCGTATTTGCA (site GATTGGCCTTG)	0
GAGTTGGCATGGACCGGTTTTCCCGGTAATCCGTATTTGTA (site GAGTTGGCTTA)	2.18
GATAAGGCATGGACCGGTTTTCCCGGTAATCCGTATTTGCG (site GATAAGGCTCG)	1.83
GATAAGGCATGGACCGGTTTTCCCGGTAATCCGTATTTGGC (site GATAAGGCTGC)	1.3
GATATGCCATGGACCGGTTTTCCCGGTAATCCGTATTTGCT (site GATATGCCTAG)	0
GATCCACCATGGACCGGTTTTCCCGGTAATCCGTATTTGGT (site GATCCACCTAC)	0.0102
GATCGACCATGGACCGGTTTTCCCGGTAATCCGTATTTGTC (site GATCGACCTGA)	0
GATCGAGCATGGACCGGTTTTCCCGGTAATCCGTATTTGCA (site GATCGAGCTTG)	1.04
GATCGAGCATGGACCGGTTTTCCCGGTAATCCGTATTTGCA (site GCTCGAGCTTG)	1.17
GATCGAGCATGGACCGGTTTTCCCGGTAATCCGTATTTGCA (site GGTCGAGCTTG)	1.15
GATCGAGCATGGACCGGTTTTCCCGGTAATCCGTATTTGCA (site GTTCGAGCTTG)	1.58
